Source: ChEMBL document CHEMBL4052684, “A novel intestinal-restricted FXR agonist” (Bioorg Med Chem Lett, 2017)
Activity calls are given as the source filed them. No cut-off for these calls is given here.

How the values were obtained:
[1] = target: T1, Bile acid receptor (Rattus norvegicus) (UniProt Q62735); assay: Agonist activity at FXR in rat primary hepatocytes assessed as increase in BSEP mRNA expression at 50 uM; type: cell-based
T1 sequence (whole entry): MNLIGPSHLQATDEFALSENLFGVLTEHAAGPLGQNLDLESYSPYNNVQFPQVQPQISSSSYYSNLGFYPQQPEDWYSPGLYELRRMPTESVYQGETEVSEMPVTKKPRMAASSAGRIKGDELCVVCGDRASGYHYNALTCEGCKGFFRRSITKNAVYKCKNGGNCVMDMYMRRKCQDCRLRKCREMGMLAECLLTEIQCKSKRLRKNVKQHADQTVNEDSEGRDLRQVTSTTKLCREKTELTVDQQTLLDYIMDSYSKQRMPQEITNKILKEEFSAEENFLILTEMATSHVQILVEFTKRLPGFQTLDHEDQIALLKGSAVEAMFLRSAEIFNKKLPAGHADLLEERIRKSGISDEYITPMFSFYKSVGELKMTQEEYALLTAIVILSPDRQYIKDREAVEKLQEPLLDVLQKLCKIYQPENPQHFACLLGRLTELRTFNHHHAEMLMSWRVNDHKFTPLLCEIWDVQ

[2] = target: T2, Bile acid receptor (Homo sapiens) (UniProt Q96RI1); assay: Agonist activity at FXR in human Caco2 cells; type: cell-based
T2 sequence (whole entry): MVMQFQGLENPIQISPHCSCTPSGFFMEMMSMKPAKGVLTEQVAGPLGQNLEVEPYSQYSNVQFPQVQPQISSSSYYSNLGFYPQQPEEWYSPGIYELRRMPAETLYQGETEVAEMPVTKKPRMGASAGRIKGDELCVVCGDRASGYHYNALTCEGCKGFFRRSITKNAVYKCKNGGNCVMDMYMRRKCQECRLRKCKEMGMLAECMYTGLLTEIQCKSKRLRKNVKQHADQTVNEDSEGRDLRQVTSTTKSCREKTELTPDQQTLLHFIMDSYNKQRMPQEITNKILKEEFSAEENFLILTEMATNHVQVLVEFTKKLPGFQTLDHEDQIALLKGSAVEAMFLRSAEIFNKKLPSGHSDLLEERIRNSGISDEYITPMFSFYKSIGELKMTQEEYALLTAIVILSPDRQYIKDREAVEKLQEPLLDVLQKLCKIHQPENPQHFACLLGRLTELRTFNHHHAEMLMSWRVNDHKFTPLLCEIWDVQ

[3] = target: T1, Bile acid receptor (Rattus norvegicus); assay: Agonist activity at FXR in rat primary hepatocytes assessed as increase in SHP mRNA expression at 50 uM; type: cell-based
[4] = target: T1, Bile acid receptor (Rattus norvegicus); assay: Agonist activity at FXR in rat primary hepatocytes assessed as reduction in CYP7A1 mRNA expression at 50 uM; type: cell-based
[5] = target: T2, Bile acid receptor (Homo sapiens); assay: Agonist activity at FXR in human Hepg2 cells; type: cell-based
[6] = tested on: Mus musculus; assay: Induction of FXR activation in C57BL/6 mouse ileum assessed as increase in FXR-mediated Bsep mRNA expression at 100 mg/kg, ig for 5 days by PCR method; type: functional, organism-based
[7] = tested on: Mus musculus; assay: Effect on FXR mRNA expression in C57BL/6 mouse kidney at 100 mg/kg, ig for 5 days by PCR method; type: ADME, organism-based; conditions: in vivo, po, 120 h
[8] = tested on: Caco-2; assay: Cytotoxicity against human Caco2 cells at 100 uM incubated for 24 hrs by MTT assay; type: cell-based; conditions: caco-2, 24 h
[9] = tested on: Mus musculus; assay: Effect on FXR mRNA expression in C57BL/6 mouse duodenum at 100 mg/kg, ig for 5 days by PCR method; type: ADME, organism-based; conditions: in vivo, po, 120 h
[10] = tested on: Mus musculus; assay: Induction of FXR activation in C57BL/6 mouse ileum assessed as increase in FXR-mediated Shp mRNA expression at 100 mg/kg, ig for 5 days by PCR method; type: functional, organism-based
[11] = Apparent permeability from basolateral to apical side in human Caco2 cells at 20 uM by LC-MS/MS method; type: ADME, cell-based; conditions: Caco-2
[12] = Apparent permeability from apical side to basolateral side in human Caco2 cells at 20 uM by LC-MS/MS method; type: ADME, cell-based; conditions: Caco-2
[13] = Drug uptake in human Caco2 cells at 20 and 50 uM by LC-MS/MS method after 3 hrs; type: ADME, cell-based; conditions: caco-2, 3 h
[14] = tested on: Intestine; assay: Drug accumulation in C57BL/6 mouse intestine assessed as drug adherence to intestinal wall at 100 mg/kg, ig for 5 days by LC-MS/MS method; type: ADME, organism-based; conditions: in vivo, po, 120 h
[15] = target: T2, Bile acid receptor (Homo sapiens); assay: Binding affinity to FXR (unknown origin) relative to fexaramine
[16] = Solubility in DMSO/mineral oil medium; type: physicochemical
[17] = tested on: Mus musculus; assay: Effect on FXR mRNA expression in C57BL/6 mouse liver at 100 mg/kg, ig for 5 days by PCR method; type: ADME, organism-based; conditions: in vivo, po, 120 h
[18] = tested on: Mus musculus; assay: Effect on FXR mRNA expression in C57BL/6 mouse jejunum at 100 mg/kg, ig for 5 days by PCR method; type: ADME, organism-based; conditions: in vivo, po, 120 h
[19] = tested on: Ileum; assay: Drug accumulation in C57BL/6 mouse ileum at 100 mg/kg, ig for 5 days by LC-MS/MS method; type: ADME, organism-based; conditions: in vivo, po, 120 h
[20] = tested on: Mus musculus; assay: Increase in FXR mRNA expression in C57BL/6 mouse ileum at 100 mg/kg, ig for 5 days by PCR method; type: functional, organism-based
[21] = Apparent permeability from basolateral to apical side in human Caco2 cells at 50 uM by LC-MS/MS method; type: ADME, cell-based; conditions: Caco-2
[22] = Drug uptake in human Caco2 cells at 20 and 50 uM by LC-MS/MS method; type: ADME, cell-based; conditions: Caco-2
[23] = target: T3, Bile acid receptor (Homo sapiens, UniProt Q96RI1); assay: Binding affinity to FXR (unknown origin)
T3 sequence (Q96RI1 whole entry): T2 sequence (whole entry)

[24] = Apparent permeability from apical side to basolateral side in human Caco2 cells at 50 uM by LC-MS/MS method; type: ADME, cell-based; conditions: Caco-2
[25] = Efflux ratio in human Caco2 cells at 20 uM by LC-MS/MS method; type: ADME, cell-based; conditions: Caco-2
[26] = Efflux ratio in human Caco2 cells at 50 uM by LC-MS/MS method; type: ADME, cell-based; conditions: Caco-2
[27] = tested on: Mus musculus; assay: Effect on FXR activation in C57BL/6 mouse kidney assessed as increase in FXR-mediated Shp mRNA expression at 100 mg/kg, ig for 5 days by PCR method; type: organism-based; conditions: in vivo, po, 120 h
[28] = tested on: Mus musculus; assay: Effect on FXR activation in C57BL/6 mouse non ileum part of intestine assessed as increase in FXR-mediated Shp mRNA expression at 100 mg/kg, ig for 5 days by PCR method; type: organism-based; conditions: in vivo, po, 120 h
[29] = tested on: Mus musculus; assay: Effect on FXR activation in C57BL/6 mouse liver assessed as increase in FXR-mediated Shp mRNA expression at 100 mg/kg, ig for 5 days by PCR method; type: organism-based; conditions: in vivo, po, 120 h
[30] = tested on: Mus musculus; assay: Induction of FXR activation in C57BL/6 mouse ileum assessed as reduction in FXR-mediated Cyp7A1 mRNA expression at 100 mg/kg, ig for 5 days by PCR method; type: functional, organism-based
[31] = target: T1, Bile acid receptor (Rattus norvegicus); assay: Agonist activity at FXR in rat primary hepatocytes; type: cell-based
[32] = tested on: Jejunum; assay: Drug accumulation in C57BL/6 mouse jejunum at 100 mg/kg, ig for 5 days by LC-MS/MS method; type: ADME, organism-based; conditions: in vivo, po, 120 h
[33] = Drug uptake in human Caco2 cells at 20 and 50 uM by LC-MS/MS method relative to initial level; type: ADME, cell-based; conditions: caco-2, TDE = time-dependent effect
[34] = tested on: Liver; assay: Drug accumulation in C57BL/6 mouse liver at 100 mg/kg, ig for 5 days by LC-MS/MS method; type: ADME, organism-based; conditions: in vivo, po, 120 h
[35] = tested on: Serum; assay: Drug accumulation in C57BL/6 mouse serum at 100 mg/kg, ig for 5 days by LC-MS/MS method; type: ADME, organism-based; conditions: in vivo, po, 120 h

| SMILES | Activity [2] | Activity [3] | Activity [4] | Activity [5] | Papp B→A at 20 µM [11] [×10⁻⁶ cm/s] | Papp A→B at 20 µM [12] [×10⁻⁶ cm/s] | Drug uptake [19] | Papp B→A at 50 µM [21] [×10⁻⁶ cm/s] | Drug uptake [22] | Papp A→B at 50 µM [24] [×10⁻⁶ cm/s] | efflux ratio at 20 µM [25] | efflux ratio at 50 µM [26] | Activity [31] | Activity [1] | Activity [6] | Activity [30] | further results |
| --- | --- | --- | --- | --- | --- | --- | --- | --- | --- | --- | --- | --- | --- | --- | --- | --- | --- |
| COC(=O)/C=C/c1cccc(N(CC2CCCCC2)C(=O)c2ccc3cc(N(C)C)ccc3c2)c1 | inactive | – | – | inactive | – | – | – | – | – | – | – | – | inactive | – | – | – | – |
| CNc1ccc2cc(C(=O)N(CC3CCCCC3)c3cccc(/C=C/C(=O)OC)c3)ccc2c1 | inactive | – | – | inactive | – | – | – | – | – | – | – | – | inactive | – | – | – | – |

More lines, main results first:

| Activity [2] | Activity [3] | Activity [4] | Activity [5] | Papp B→A at 20 µM [11] [×10⁻⁶ cm/s] | Papp A→B at 20 µM [12] [×10⁻⁶ cm/s] | Drug uptake [19] | Papp B→A at 50 µM [21] [×10⁻⁶ cm/s] | Drug uptake [22] | Papp A→B at 50 µM [24] [×10⁻⁶ cm/s] | efflux ratio at 20 µM [25] | efflux ratio at 50 µM [26] | Activity [31] | SMILES | Activity [1] | Activity [6] | Activity [30] | further results |
| --- | --- | --- | --- | --- | --- | --- | --- | --- | --- | --- | --- | --- | --- | --- | --- | --- | --- |
| inactive | Active | Active | inactive | – | – | – | – | – | – | – | – | – | COC(=O)/C=C/c1cccc(N(Cc2ccc(-c3ccc(N(C)C)cc3)cc2)C(=O)c2ccc3cc(N(C)C)ccc3c2)c1 | Active | – | – | – |
| inactive | Active | Active | inactive | 6.62 | 18.7 | Active | 75 | Active | 97.6 | 0.35 | 0.77 | – | CNc1ccc2cc(C(=O)N(Cc3ccc(-c4ccc(N(C)C)cc4)cc3)c3cccc(/C=C/C(=O)OC)c3)ccc2c1 | Active | Active | Active | Activity [7]: Non-Toxic; Activity [8]: Non-Toxic; Activity [9]: Non-Toxic; Activity [10]: Active; Drug uptake [13]: Active; Drug uptake [14]: Active; Ratio [15]: 2000; solubility [16]: Insoluble; Activity [17]: Non-Toxic; Activity [18]: Non-Toxic; Activity [20]: Active; Kd [23]: 48.7 µM; Activity [27]: Non-Toxic; Activity [28]: Non-Toxic; Activity [29]: Non-Toxic |
| – | – | – | – | 24 | 27.7 | Active | 873 | Active | 762 | 0.87 | 1.14 | – | COC(=O)/C=C/c1cccc(N(Cc2ccc(-c3ccc(N(C)C)cc3)cc2)C(=O)C2CCCCC2)c1 [FEXARAMINE] | – | Active | Active | Drug uptake [32]: Active; Drug uptake [33]: Tde; Drug uptake [34]: Active; Drug uptake [35]: Active |
